Data: PubChem BioAssay (NCI)
“And” between values parts separate entries of the source, which are not always exact repeats. Equal entries are not always repeated.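 Results reflect a 48-hour exposure of cells in 96-well plates to compound at five concentrations. GI50 is the concentration that inhibits growth by half. TGI denotes the concentration required for complete inhibition of growth.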

What was measured:
Test in all cases: NCI tumour cell line growth inhibition, 48 h
KM20L2 colon = tested on: KM20L2 colon
SF-539 CNS = tested on: SF-539 CNS
HCT-116 colon = tested on: HCT-116 colon
NCI-H460 lung = tested on: NCI-H460 lung
M19-MEL melanoma = tested on: M19-MEL melanoma
SK-MEL-2 melanoma = tested on: SK-MEL-2 melanoma
SNB-75 CNS = tested on: SNB-75 CNS
UO-31 renal = tested on: UO-31 renal
HOP-62 NSCLC = tested on: HOP-62 NSCLC
LXFL 529 NSCLC = tested on: LXFL 529 NSCLC
DMS 273 small cell lung = tested on: DMS 273 small cell lung
SN12C renal = tested on: SN12C renal
SF-295 CNS = tested on: SF-295 CNS
OVCAR-8 ovarian = tested on: OVCAR-8 ovarian
SR leukemia = tested on: SR leukemia
HT29 colon = tested on: HT29 colon
SK-MEL-5 melanoma = tested on: SK-MEL-5 melanoma
SNB-78 CNS = tested on: SNB-78 CNS
DLD-1 colon = tested on: DLD-1 colon
TK-10 renal = tested on: TK-10 renal
COLO 205 colon = tested on: COLO 205 colon
KM12 colon = tested on: KM12 colon
SF-268 CNS = tested on: SF-268 CNS
SNB-19 CNS = tested on: SNB-19 CNS
HOP-92 NSCLC = tested on: HOP-92 NSCLC
NCI-H522 lung = tested on: NCI-H522 lung
RXF-631 renal = tested on: RXF-631 renal
CCRF-CEM leukemia = tested on: CCRF-CEM leukemia
OVCAR-3 ovarian = tested on: OVCAR-3 ovarian
HCT-15 colon = tested on: HCT-15 colon
MOLT-4 leukemia = tested on: MOLT-4 leukemia
SW-620 colon = tested on: SW-620 colon
IGROV1 ovarian = tested on: IGROV1 ovarian
CAKI-1 renal = tested on: CAKI-1 renal
M14 melanoma = tested on: M14 melanoma
OVCAR-4 ovarian = tested on: OVCAR-4 ovarian
K-562 leukemia = tested on: K-562 leukemia
UACC-62 melanoma = tested on: UACC-62 melanoma
NCI-H23 lung = tested on: NCI-H23 lung
HOP-18 NSCLC = tested on: HOP-18 NSCLC
RXF 393 renal = tested on: RXF 393 renal
OVCAR-5 ovarian = tested on: OVCAR-5 ovarian
HL-60(TB) leukemia = tested on: HL-60(TB) leukemia
LOX IMVI melanoma = tested on: LOX IMVI melanoma
A498 renal = tested on: A498 renal
MALME-3M melanoma = tested on: MALME-3M melanoma
SK-MEL-28 melanoma = tested on: SK-MEL-28 melanoma
NCI-H226 lung = tested on: NCI-H226 lung
EKVX NSCLC = tested on: EKVX NSCLC
HCC-2998 colon = tested on: HCC-2998 colon
786-0 renal = tested on: 786-0 renal
UACC-257 melanoma = tested on: UACC-257 melanoma
U251 CNS = tested on: U251 CNS
SK-OV-3 ovarian = tested on: SK-OV-3 ovarian
DMS 114 small cell lung = tested on: DMS 114 small cell lung
XF 498 CNS = tested on: XF 498 CNS

`Cc1cccc2cc3cccc(C(=O)NCCN(C)C)c3nc12` gave a TGI (KM20L2 colon) of 5.11 µM, a TGI (SF-539 CNS) of 1.61 µM and a TGI (HCT-116 colon) of 1.54 µM. For the same compound, the TGI (NCI-H460 lung) was 0.312 µM, the TGI (M19-MEL melanoma) was 0.847 µM and the TGI (SK-MEL-2 melanoma) was 1.85 µM. For the same compound, the TGI (SNB-75 CNS) was 0.825 µM, the TGI (UO-31 renal) was 0.552 µM and the TGI (HOP-62 NSCLC) was 0.502 µM. For the same compound, the TGI (LXFL 529 NSCLC) was 10.6 µM, the TGI (DMS 273 small cell lung) was 0.926 µM and the TGI (SN12C renal) was 1.02 µM. It also gave a TGI (SF-295 CNS) of 1.74 µM, a TGI (OVCAR-8 ovarian) of 5.58 µM and a TGI (SR leukemia) of 0.118 µM. The TGI (HT29 colon) was 3.94 µM, the TGI (SK-MEL-5 melanoma) was 0.825 µM and the TGI (SNB-78 CNS) was 11.4 µM. It also gave a TGI (DLD-1 colon) of 5.11 µM, a TGI (TK-10 renal) of 7.88 µM and a TGI (COLO 205 colon) of 1.75 µM. For the same compound, the TGI (KM12 colon) was 6.12 µM, the TGI (SF-268 CNS) was 3.84 µM and the TGI (SNB-19 CNS) was 6.06 µM. It also gave a TGI (HOP-92 NSCLC) of 1.38 µM, a TGI (NCI-H522 lung) of 1.19 µM and a TGI (RXF-631 renal) of 27.7 µM. It also gave a TGI (CCRF-CEM leukemia) of 3.53 µM, a TGI (OVCAR-3 ovarian) of 5.38 µM and a TGI (HCT-15 colon) of 1.5 µM. For the same compound, the TGI (MOLT-4 leukemia) was 0.344 µM, the TGI (SW-620 colon) was 10.5 µM and the TGI (IGROV1 ovarian) was greater than 38.8 µM. It also gave a TGI (CAKI-1 renal) of 0.327 µM, a TGI (M14 melanoma) of 2.43 µM and a TGI (OVCAR-4 ovarian) of 2.32 µM. The TGI (K-562 leukemia) was 11.3 µM, the TGI (UACC-62 melanoma) was 0.386 µM and the TGI (NCI-H23 lung) was 1.17 µM. The TGI (HOP-18 NSCLC) was 9.35 µM, the TGI (RXF 393 renal) was 0.931 µM and the TGI (OVCAR-5 ovarian) was 1.63 µM. It also gave a TGI (HL-60(TB) leukemia) of 1.15 µM, a TGI (LOX IMVI melanoma) of 0.568 µM and a TGI (A498 renal) of 0.192 µM. The TGI (MALME-3M melanoma) was 1.11 µM, the TGI (SK-MEL-28 melanoma) was 2.21 µM and the TGI (NCI-H226 lung) was 0.343 µM. For the same compound, the TGI (EKVX NSCLC) was 1.69 µM, the TGI (HCC-2998 colon) was 1.48 µM and the TGI (786-0 renal) was 11.5 µM. It also gave a TGI (UACC-257 melanoma) of 1.46 µM, a TGI (U251 CNS) of 2.15 µM and a TGI (SK-OV-3 ovarian) of 0.619 µM. It also gave a TGI (DMS 114 small cell lung) of 1.02 µM.
For `CC(=O)OCC1OC(n2c(=S)n(-c3ccccc3)c(=S)c3ccccc32)C(OC(C)=O)C(OC(C)=O)C1OC(C)=O` (centres undefined), the TGI (SF-539 CNS) was greater than 100 µM, the TGI (HCT-116 colon) was greater than 100 µM and the GI50 (SK-MEL-2 melanoma) was 78.6 µM and > 35.8 µM. It also gave a TGI (SK-MEL-2 melanoma) greater than 100 µM, a TGI (SNB-75 CNS) greater than 100 µM and a TGI (UO-31 renal) greater than 100 µM. For the same compound, the GI50 (LXFL 529 NSCLC) was 62.3 µM and 8.58 µM, the TGI (LXFL 529 NSCLC) was greater than 100 µM and the TGI (TK-10 renal) was greater than 100 µM. The GI50 (XF 498 CNS) was 28.3 µM and 4.4 µM, the TGI (XF 498 CNS) was greater than 100 µM and the GI50 (SF-268 CNS) was 77.9 µM and 9.64 µM. For the same compound, the TGI (SF-268 CNS) was greater than 100 µM, the TGI (HOP-92 NSCLC) was greater than 100 µM and the TGI (RXF-631 renal) was greater than 100 µM. The GI50 (CAKI-1 renal) was 50.7 µM and 20 µM, the TGI (CAKI-1 renal) was greater than 100 µM and the TGI (M14 melanoma) was greater than 100 µM. For the same compound, the TGI (HOP-18 NSCLC) was greater than 100 µM, the GI50 (RXF 393 renal) was 38.4 µM and 4.04 µM and the TGI (RXF 393 renal) was greater than 100 µM. The GI50 (LOX IMVI melanoma) was 60.4 µM and 19.7 µM, the TGI (LOX IMVI melanoma) was greater than 100 µM and the TGI (786-0 renal) was greater than 100 µM.
